The supplement of paper PMC10307832

Experiments:
Assay in all cases: relative viability (nuclei count vs DMSO), 5 days (fraction); higher = more cells survive
Avagacestat + Crizotinib = compound: NC(=O)[C@@H](CCC(F)(F)F)N(Cc1ccc(-c2ncon2)cc1F)S(=O)(=O)c1ccc(Cl)cc1 [Avagacestat] + C[C@@H](Oc1cc(-c2cnn(C3CCNCC3)c2)cnc1N)c1c(Cl)ccc(F)c1Cl [Crizotinib] (partner 1 µM)
Procedure, shortened: (§1)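 Dosing by pin tool came one day after lung cancer cell lines were seeded in 1536-well plates, using either one drug or a fixed anchor-drug dose plus five library-drug doses (not always all listed) in √10 steps. After 5 days, nuclei were counted on 4× images. Relative viability is treated-well nuclei count divided by vehicle-well nuclei count, and values are medians of duplicate plates.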

Avagacestat + Lapatinib = compound: NC(=O)[C@@H](CCC(F)(F)F)N(Cc1ccc(-c2ncon2)cc1F)S(=O)(=O)c1ccc(Cl)cc1 [Avagacestat] + CS(=O)(=O)CCNCc1ccc(-c2ccc3ncnc(Nc4ccc(OCc5cccc(F)c5)c(Cl)c4)c3c2)o1 [Lapatinib] (partner 2 µM)
Procedure, shortened: as §1

Avagacestat + Dasatinib = compound: NC(=O)[C@@H](CCC(F)(F)F)N(Cc1ccc(-c2ncon2)cc1F)S(=O)(=O)c1ccc(Cl)cc1 [Avagacestat] + Cc1nc(Nc2ncc(C(=O)Nc3c(C)cccc3Cl)s2)cc(N2CCN(CCO)CC2)n1 [Dasatinib] (partner 0.075 µM)
Procedure, shortened: as §1

Avagacestat + Pemetrexed = compound: NC(=O)[C@@H](CCC(F)(F)F)N(Cc1ccc(-c2ncon2)cc1F)S(=O)(=O)c1ccc(Cl)cc1 [Avagacestat] + Nc1nc2[nH]cc(CCc3ccc(C(=O)N[C@@H](CCC(=O)O)C(=O)O)cc3)c2c(=O)[nH]1 [Pemetrexed] (partner 0.2 µM)
Procedure, shortened: as §1

| Cell Line | relative viability (Avagacestat + Crizotinib; first compound 0.08 µM) | relative viability (Avagacestat + Crizotinib; first compound 0.253 µM) | relative viability (Avagacestat + Crizotinib; first compound 0.8 µM) | relative viability (Avagacestat + Crizotinib; first compound 2.53 µM) | relative viability (Avagacestat + Crizotinib; first compound 8 µM) | relative viability (Avagacestat + Lapatinib; first compound 0.08 µM) | relative viability (Avagacestat + Lapatinib; first compound 0.253 µM) | relative viability (Avagacestat + Lapatinib; first compound 0.8 µM) | relative viability (Avagacestat + Lapatinib; first compound 2.53 µM) | relative viability (Avagacestat + Lapatinib; first compound 8 µM) | relative viability (Avagacestat + Dasatinib; first compound 0.08 µM) | relative viability (Avagacestat + Dasatinib; first compound 0.253 µM) | relative viability (Avagacestat + Dasatinib; first compound 0.8 µM) | relative viability (Avagacestat + Dasatinib; first compound 2.53 µM) | relative viability (Avagacestat + Dasatinib; first compound 8 µM) | relative viability (Avagacestat + Pemetrexed; first compound 0.08 µM) | relative viability (Avagacestat + Pemetrexed; first compound 0.253 µM) | relative viability (Avagacestat + Pemetrexed; first compound 0.8 µM) | relative viability (Avagacestat + Pemetrexed; first compound 2.53 µM) | relative viability (Avagacestat + Pemetrexed; first compound 8 µM) |
| --- | --- | --- | --- | --- | --- | --- | --- | --- | --- | --- | --- | --- | --- | --- | --- | --- | --- | --- | --- | --- |
| EKVX | 1.02 | 1.35 | 1.06 | 0.899 | 0.857 | 0.227 | 0.208 | 0.226 | 0.186 | 0.184 | 0.621 | 0.491 | 0.512 | 0.473 | 0.382 | 0.5 | 0.462 | 0.529 | 0.439 | 0.373 |
| NCI-H1755 | 1.04 | 1.01 | 0.928 | 0.865 | 0.832 | 1.05 | 1.29 | 1.22 | 1.04 | 1.02 | 0.445 | 0.357 | 0.234 | 0.389 | 0.334 | 0.541 | 0.478 | 0.383 | 0.372 | 0.383 |
| NCI-H647 | 1.31 | 1.41 | 1.19 | 1.03 | 1.07 | 1.42 | 1.13 | 1.25 | 1.09 | 0.811 | 0.195 | 0.188 | 0.232 | 0.118 | 0.147 | 0.171 | 0.171 | 0.186 | 0.149 | 0.15 |
| EPLC-272H | 1.06 | 0.988 | 1.03 | 0.969 | 0.799 | 1.1 | 0.963 | 0.883 | 1.15 | 0.997 | 0.328 | 0.339 | 0.289 | 0.348 | 0.266 | 0.322 | 0.429 | 0.318 | 0.31 | 0.267 |
| NCI-H460 | 1.86 | 1.69 | 0.977 | 0.893 | 0.853 | 1.16 | 1.49 | 1.58 | 0.916 | 0.726 | 0.625 | 0.59 | 0.747 | 0.402 | 0.475 | 0.0657 | 0.0554 | 0.0635 | 0.0567 | 0.0624 |
| NCI-H1915 | 0.924 | 1.15 | 0.964 | 0.912 | 0.889 | 0.965 | 1.12 | 1.12 | 0.988 | 0.949 | 0.305 | 0.308 | 0.279 | 0.313 | 0.341 | 0.521 | 0.573 | 0.537 | 0.5 | 0.52 |
| NCI-H2009 | 1.04 | 1.14 | 1.01 | 1.04 | 0.975 | 0.963 | 0.995 | 0.857 | 0.993 | 0.814 | 0.323 | 0.274 | 0.282 | 0.257 | 0.229 | 1.16 | 1.15 | 1.11 | 1.02 | 0.975 |
| NCI-H650 | 0.625 | 0.762 | 0.692 | 0.744 | 0.823 | 1.2 | 1.04 | 1.03 | 1.1 | 0.835 | 0.499 | 0.398 | 0.481 | 0.456 | 0.451 | 1.05 | 1.04 | 1.04 | 0.944 | 0.868 |
